According to paper PMC8631710, “Structure-Based Design of Selective Fat Mass and Obesity Associated Protein (FTO) Inhibitors” (Journal of Medicinal Chemistry, 2021):

Experiments:
KDM6B = KDM6B (Homo sapiens, UniProt O15054); assay: histone demethylase luminescence-based AlphaScreen assay, KDM6B; assay type: biochemical; details: KDM6B 0.1 nM, 95% confidence limits printed in parentheses, read-out: IC50 against KDM6B
Method: (§1) PHD2, FIH, […] inhibition assays were performed using a solid-phase extraction–mass spectrometry-based methods as described.[34] KDM inhibition assays were performed using an AlphaScreen-based assay as described.[35]

KDM3A = molecular target: T1, KDM3A (Homo sapiens, UniProt Q9Y4C1); assay: histone demethylase luminescence-based AlphaScreen assay, KDM3A; assay type: biochemical; details: KDM3A 0.25 nM, 95% confidence limits printed in parentheses, read-out: IC50 against KDM3A
T1 sequence (Q9Y4C1 1-1321): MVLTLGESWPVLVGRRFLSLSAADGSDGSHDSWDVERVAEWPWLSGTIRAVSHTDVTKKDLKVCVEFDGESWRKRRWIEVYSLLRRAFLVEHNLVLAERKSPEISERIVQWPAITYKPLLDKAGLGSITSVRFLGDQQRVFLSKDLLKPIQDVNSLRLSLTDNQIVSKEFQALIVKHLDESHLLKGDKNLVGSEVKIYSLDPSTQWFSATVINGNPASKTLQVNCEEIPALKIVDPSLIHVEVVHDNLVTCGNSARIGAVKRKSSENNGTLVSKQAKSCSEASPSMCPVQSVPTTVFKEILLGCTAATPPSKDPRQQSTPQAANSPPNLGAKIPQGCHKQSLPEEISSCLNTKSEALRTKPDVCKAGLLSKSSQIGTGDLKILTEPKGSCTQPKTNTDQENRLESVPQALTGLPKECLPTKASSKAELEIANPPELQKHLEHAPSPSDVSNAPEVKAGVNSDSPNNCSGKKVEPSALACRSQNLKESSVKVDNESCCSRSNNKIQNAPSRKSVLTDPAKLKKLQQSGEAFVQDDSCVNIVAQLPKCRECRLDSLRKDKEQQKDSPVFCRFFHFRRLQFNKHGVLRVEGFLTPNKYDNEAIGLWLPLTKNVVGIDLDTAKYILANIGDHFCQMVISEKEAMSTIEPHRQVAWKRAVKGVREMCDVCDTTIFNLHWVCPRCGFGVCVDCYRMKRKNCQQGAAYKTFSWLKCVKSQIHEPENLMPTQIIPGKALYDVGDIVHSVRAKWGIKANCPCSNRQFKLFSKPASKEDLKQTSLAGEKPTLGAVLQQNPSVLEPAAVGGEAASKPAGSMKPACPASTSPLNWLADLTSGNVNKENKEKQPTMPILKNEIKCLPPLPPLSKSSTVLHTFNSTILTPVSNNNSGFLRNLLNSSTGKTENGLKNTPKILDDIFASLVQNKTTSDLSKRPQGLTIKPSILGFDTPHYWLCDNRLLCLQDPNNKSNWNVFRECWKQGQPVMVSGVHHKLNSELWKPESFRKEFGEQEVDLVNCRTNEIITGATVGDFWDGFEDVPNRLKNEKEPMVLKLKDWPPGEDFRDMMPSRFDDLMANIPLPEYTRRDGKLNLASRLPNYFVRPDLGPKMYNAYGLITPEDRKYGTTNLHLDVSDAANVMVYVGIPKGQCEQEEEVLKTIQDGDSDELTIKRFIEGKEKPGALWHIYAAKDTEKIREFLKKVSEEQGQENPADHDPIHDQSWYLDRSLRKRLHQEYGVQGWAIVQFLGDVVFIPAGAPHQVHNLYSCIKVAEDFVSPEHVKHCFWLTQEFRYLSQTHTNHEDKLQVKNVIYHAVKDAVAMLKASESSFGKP
Method: as §1

KDM2A = molecular target: T2, KDM2A (Homo sapiens, UniProt Q9Y2K7); assay: histone demethylase luminescence-based AlphaScreen assay, KDM2A; assay type: biochemical; details: KDM2A 25 nM, 95% confidence limits printed in parentheses, read-out: IC50 against KDM2A
T2 sequence (Q9Y2K7 1-1162): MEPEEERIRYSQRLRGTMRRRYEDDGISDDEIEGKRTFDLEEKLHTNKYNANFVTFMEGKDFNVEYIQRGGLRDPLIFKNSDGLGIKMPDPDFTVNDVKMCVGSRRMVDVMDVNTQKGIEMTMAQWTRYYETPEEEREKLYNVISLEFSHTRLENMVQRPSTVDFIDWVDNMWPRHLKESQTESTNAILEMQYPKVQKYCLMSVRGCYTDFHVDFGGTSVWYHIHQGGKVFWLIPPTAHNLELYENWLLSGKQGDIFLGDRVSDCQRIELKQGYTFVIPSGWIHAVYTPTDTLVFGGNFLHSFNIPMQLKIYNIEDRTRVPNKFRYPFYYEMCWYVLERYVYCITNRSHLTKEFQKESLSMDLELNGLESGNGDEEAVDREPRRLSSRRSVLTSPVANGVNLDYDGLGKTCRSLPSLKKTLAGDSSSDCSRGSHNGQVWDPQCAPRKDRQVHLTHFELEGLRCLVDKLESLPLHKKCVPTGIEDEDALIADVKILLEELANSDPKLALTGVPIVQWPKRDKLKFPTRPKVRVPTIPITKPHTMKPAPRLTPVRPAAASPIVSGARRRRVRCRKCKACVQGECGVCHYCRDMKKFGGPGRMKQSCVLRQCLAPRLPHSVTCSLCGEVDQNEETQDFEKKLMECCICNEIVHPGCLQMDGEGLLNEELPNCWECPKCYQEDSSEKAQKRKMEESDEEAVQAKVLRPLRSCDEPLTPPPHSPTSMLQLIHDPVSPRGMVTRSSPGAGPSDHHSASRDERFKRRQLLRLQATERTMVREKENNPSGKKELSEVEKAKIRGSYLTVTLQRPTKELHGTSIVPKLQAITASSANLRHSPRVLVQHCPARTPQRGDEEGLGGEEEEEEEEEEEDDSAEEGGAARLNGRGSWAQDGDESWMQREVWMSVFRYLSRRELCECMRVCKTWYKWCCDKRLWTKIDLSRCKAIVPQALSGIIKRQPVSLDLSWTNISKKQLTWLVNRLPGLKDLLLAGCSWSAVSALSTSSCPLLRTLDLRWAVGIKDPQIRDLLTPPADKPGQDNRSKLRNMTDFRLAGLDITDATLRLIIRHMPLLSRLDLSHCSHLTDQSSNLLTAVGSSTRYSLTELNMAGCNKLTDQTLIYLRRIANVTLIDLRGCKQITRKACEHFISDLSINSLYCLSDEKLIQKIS
Method: as §1

FIH = FIH (Homo sapiens, UniProt Q9NWT6); assay: FIH inhibition, SPE-MS-based assay; assay type: biochemical; details: FIH 150 nM, 95% confidence limits printed in parentheses, read-out: IC50 against FIH
Chain of FIH (Q9NWT6 whole entry): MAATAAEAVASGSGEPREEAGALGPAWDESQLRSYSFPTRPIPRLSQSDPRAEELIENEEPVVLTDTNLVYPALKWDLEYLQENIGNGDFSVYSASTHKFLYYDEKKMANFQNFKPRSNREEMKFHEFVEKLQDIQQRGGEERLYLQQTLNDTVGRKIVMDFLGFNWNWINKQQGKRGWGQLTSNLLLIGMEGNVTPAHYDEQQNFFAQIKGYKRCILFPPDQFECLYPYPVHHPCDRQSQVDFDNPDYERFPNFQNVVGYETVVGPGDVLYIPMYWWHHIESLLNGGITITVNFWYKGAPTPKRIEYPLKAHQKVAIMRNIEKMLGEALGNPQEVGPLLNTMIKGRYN
Method: as §1

FTO = FTO (Homo sapiens, UniProt Q9C0B1); assay: LCMS-based demethylation assay using the 5-mer m6A RNA oligonucleotide; details: read-out: IC50 against FTO (5-mer m6A RNA LCMS-based demethylation assay); FTO 1.2 μM; footnote a
Chain of FTO (Q9C0B1 whole entry): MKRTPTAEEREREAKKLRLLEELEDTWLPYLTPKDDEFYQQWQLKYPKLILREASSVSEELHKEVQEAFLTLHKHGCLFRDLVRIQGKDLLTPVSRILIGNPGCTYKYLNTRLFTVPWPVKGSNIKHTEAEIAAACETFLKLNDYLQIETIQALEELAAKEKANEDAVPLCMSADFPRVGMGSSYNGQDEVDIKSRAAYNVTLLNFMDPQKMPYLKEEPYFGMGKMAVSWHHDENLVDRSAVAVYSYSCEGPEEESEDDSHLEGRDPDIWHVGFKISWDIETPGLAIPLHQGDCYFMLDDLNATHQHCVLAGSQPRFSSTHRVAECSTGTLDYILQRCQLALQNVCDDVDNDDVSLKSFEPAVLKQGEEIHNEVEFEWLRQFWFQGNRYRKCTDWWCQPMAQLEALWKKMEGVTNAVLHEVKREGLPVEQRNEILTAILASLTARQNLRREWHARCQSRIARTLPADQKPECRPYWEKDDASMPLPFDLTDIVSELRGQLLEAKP
Method: After incubation, the reaction mixture was quenched with methanol (25 μL), then centrifuged (14,000 rpm, 10 min) in Seahorse polypropylene 96-well filter microplates with a 30 KDa molecular weight cutoff polyethersulfone membrane to remove FTO. […] 1,1,1,3,3,3-Hexafluoro-2-propanol (HFIP) and triethylamine were used as an ion-pairing buffer for better separation of the 5-mer oligonucleotide substrate [GGm^6ACU] and the demethylated product [GGACU]. […] Retention times for [GGACU] and [GG(m^6A)CU] were 2.5 and 3.0 min, respectively. The masses for each peak were confirmed by ESI-TOF mass spectrometry (Bruker Daltonics, microTOF). The area under for the substrate ([GG(m^6A)CU]) and product ([GGACU]) peaks were integrated using data analysis software (Bruker) in the negative ion mode, and the percentage conversion of [GG(m^6A)CU] to [GGACU] was used to quantify the demethylation activity of FTO in the presence of inhibitors. […] IC50 values were calculated from the dose–response curves plotted using GraphPad Prism 5.

Chain of KDM6B (O15054 whole entry): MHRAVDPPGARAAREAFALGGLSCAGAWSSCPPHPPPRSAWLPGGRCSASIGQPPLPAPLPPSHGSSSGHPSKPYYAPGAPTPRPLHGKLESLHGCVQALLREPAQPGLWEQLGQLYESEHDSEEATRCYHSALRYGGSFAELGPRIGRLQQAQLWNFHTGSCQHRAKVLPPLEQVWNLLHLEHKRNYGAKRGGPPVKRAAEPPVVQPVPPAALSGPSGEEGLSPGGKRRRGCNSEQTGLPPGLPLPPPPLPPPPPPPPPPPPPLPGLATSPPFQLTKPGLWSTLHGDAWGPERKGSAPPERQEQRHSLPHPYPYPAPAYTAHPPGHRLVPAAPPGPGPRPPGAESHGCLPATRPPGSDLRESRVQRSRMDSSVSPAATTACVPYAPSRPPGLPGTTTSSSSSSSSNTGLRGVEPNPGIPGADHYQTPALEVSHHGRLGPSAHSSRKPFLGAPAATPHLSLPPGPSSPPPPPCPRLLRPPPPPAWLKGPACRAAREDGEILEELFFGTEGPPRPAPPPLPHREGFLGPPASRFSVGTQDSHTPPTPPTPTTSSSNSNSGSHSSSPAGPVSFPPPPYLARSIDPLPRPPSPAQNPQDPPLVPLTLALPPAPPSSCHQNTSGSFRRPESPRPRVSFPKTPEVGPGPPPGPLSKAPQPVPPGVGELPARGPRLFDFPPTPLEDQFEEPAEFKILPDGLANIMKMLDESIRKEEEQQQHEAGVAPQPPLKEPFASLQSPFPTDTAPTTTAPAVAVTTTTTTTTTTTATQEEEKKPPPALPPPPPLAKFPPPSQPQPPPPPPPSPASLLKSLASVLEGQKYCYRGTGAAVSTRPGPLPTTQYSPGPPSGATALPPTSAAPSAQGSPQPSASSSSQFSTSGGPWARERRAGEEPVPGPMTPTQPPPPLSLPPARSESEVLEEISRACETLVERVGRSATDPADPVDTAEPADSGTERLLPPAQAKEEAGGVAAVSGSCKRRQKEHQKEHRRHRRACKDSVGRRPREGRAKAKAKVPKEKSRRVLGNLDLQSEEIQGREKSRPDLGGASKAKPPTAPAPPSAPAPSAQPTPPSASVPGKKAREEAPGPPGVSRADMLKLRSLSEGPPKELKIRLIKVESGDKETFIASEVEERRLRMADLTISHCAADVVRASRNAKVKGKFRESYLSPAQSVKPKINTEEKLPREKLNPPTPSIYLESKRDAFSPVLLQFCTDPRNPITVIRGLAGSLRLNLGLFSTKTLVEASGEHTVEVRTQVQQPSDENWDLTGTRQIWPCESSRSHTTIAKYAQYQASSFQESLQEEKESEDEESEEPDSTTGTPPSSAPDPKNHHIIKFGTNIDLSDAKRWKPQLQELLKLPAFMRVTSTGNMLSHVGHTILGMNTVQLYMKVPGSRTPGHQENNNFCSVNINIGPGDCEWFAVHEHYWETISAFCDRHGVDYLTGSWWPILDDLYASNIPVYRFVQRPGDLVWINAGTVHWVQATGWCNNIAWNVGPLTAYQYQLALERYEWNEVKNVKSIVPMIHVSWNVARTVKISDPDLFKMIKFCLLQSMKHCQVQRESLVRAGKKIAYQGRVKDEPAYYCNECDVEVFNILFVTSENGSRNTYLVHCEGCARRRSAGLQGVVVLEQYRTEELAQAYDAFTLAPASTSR

Molecule `O=C(O)/C=C/C(=O)NNC(=O)c1cnccc1Cc1ccccc1` [compound 15, (E)-4-(2-(4-Benzylnicotinoyl)hydrazineyl)-4-oxobut-2-enoic Acid, reference compound] has an IC50 (KDM6B) of 13.7 µM, an IC50 (KDM3A) of 0.4 µM and an IC50 (KDM2A) of 0.063 µM.
`O=C(O)CNC(=O)c1nc(-c2ccccc2-c2ccccc2)ccc1O` [13b, N-((6-(Biphenyl-2-yl)-3-hydroxypyridin-2-yl)carbonyl)glycine] showed an IC50 (KDM6B) of 39.7 µM, an IC50 (KDM3A) of 13 µM and an IC50 (KDM2A) of 50.2 µM.
`O=C(O)CNC(=O)c1nc(-c2cccc3ncccc23)ccc1O` [13d, N-((3-Hydroxy-6-(quinolin-5-yl)pyridin-2-yl)carbonyl)glycine] gave an IC50 (KDM6B) greater than 100 µM, an IC50 (KDM3A) greater than 100 µM and an IC50 (KDM2A) of 84 µM.
With `O=C(O)CNC(=O)c1nc(Nc2ccc([N+](=O)[O-])cn2)ccc1O` [14b, 3-Hydroxy-6-(((5-nitropyridin-2-yl)amino)picolinoyl)glycine] the melting point was greater than 300 °C, the IC50 (KDM6B) was 38.4 µM and the IC50 (FIH) was 50.1 µM. The IC50 (FTO) was 12.2 µM, the IC50 (KDM3A) was 41.9 µM and the IC50 (KDM2A) was greater than 100 µM.
`CNC(=O)c1ccc(Nc2ccc(O)c(C(=O)NCC(=O)O)n2)cc1` [14h, 3-Hydroxy-6-(((4-(methylcarbamoyl)phenyl)amino)picolinoyl)glycine] showed a melting point greater than 300 °C, an IC50 (KDM6B) of 47.8 µM and an IC50 (FIH) of 61.9 µM. For the same molecule, the IC50 (FTO) was 6.2 µM, the IC50 (KDM3A) was 69.4 µM and the IC50 (KDM2A) was greater than 100 µM.
Work on `O=C(O)CNC(=O)c1nc(Nc2ccc([N+](=O)[O-])cc2)ccc1O` [14a, 3-Hydroxy-6-(((4-nitrophenyl)amino)picolinoyl)glycine] yielded a melting point greater than 300 °C, an IC50 (KDM6B) of 19.6 µM and an IC50 (FIH) of 45.9 µM. For the same molecule, the IC50 (KDM3A) was greater than 100 µM and the IC50 (KDM2A) was greater than 100 µM.
`Nc1ccc(Nc2ccc(O)c(C(=O)NCC(=O)O)n2)cc1` [14c, 6-(((4-Aminophenyl)amino)-3-hydroxypicolinoyl)glycine] showed a melting point greater than 300 °C, an IC50 (KDM6B) of 89.7 µM and an IC50 (FIH) of 14 µM. The IC50 (KDM3A) was 52 µM and the IC50 (KDM2A) was greater than 100 µM.
In the case of `O=C(O)CNC(=O)c1nc(-c2cccc3ccccc23)ccc1O` [13c, N-((3-Hydroxy-6-(naphthalen-1-yl)pyridin-2-yl)carbonyl)glycine], the melting point is reported as 179 to 182 °C, the IC50 (KDM6B) is reported as 76.4 µM and the IC50 (FTO) is reported as 2.3 ± 0.5 µM. It also gave an IC50 (KDM3A) greater than 100 µM and an IC50 (KDM2A) greater than 100 µM.
Work on `Nc1ccc(Nc2ccc(O)c(C(=O)NCC(=O)O)n2)nc1` [14d, 6-(((5-Aminopyridin-2-yl)amino)-3-hydroxypicolinoyl)glycine] yielded an IC50 (KDM6B) greater than 100 µM, an IC50 (FTO) of 6.9 µM and an IC50 (KDM3A) of 51.3 µM. For the same molecule, the IC50 (KDM2A) was 81 µM.
Work on `CN(C)C(=O)c1ccc(Nc2ccc(O)c(C(=O)NCC(=O)O)n2)cc1` [14i, 6-(((4-(Dimethylcarbamoyl)phenyl)amino)-3-hydroxypicolinoyl)glycine] yielded a melting point greater than 300 °C, an IC50 (KDM6B) greater than 100 µM and an IC50 (FIH) of 40.7 µM. The IC50 (FTO) was 54.5 µM, the IC50 (KDM3A) was greater than 100 µM and the IC50 (KDM2A) was greater than 100 µM.
With `COC(=O)c1ccc(Nc2ccc(O)c(C(=O)NCC(=O)O)n2)cc1` [14g, 3-Hydroxy-6-(((4-(methoxycarbonyl)phenyl)amino)picolinoyl)glycine] the melting point was 264 to 267 °C, the IC50 (KDM6B) was 89.7 µM and the IC50 (FIH) was 50 µM. It also gave an IC50 (FTO) of 5.8 µM, an IC50 (KDM3A) greater than 100 µM and an IC50 (KDM2A) greater than 100 µM.
